Assay results published in PubChem BioAssay (NCI).
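A five-concentration, 48-hour dose response in 96-well plates underlies each endpoint, interpolated linearly between surrounding concentrations. The concentration for 50% growth inhibition is given as GI50. TGI denotes the concentration required for complete inhibition of growth.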

Experiments:
Experiment in all cases: DTP human tumour cell line panel, 48 h
SN12C renal = system: SN12C renal
IGROV1 ovarian = system: IGROV1 ovarian
SK-MEL-28 melanoma = system: SK-MEL-28 melanoma
U251 CNS = system: U251 CNS
OVCAR-3 ovarian = system: OVCAR-3 ovarian
LOX IMVI melanoma = system: LOX IMVI melanoma
HOP-62 NSCLC = system: HOP-62 NSCLC
SF-268 CNS = system: SF-268 CNS
MDA-MB-231 breast = system: MDA-MB-231 breast
MCF7 breast = system: MCF7 breast

| SMILES | TGI (SN12C renal) | TGI (IGROV1 ovarian) | TGI (SK-MEL-28 melanoma) | TGI (U251 CNS) | TGI (OVCAR-3 ovarian) | TGI (LOX IMVI melanoma) | TGI (HOP-62 NSCLC) | TGI (SF-268 CNS) | GI50 (SN12C renal) | GI50 (MDA-MB-231 breast) | TGI (MDA-MB-231 breast) | GI50 (IGROV1 ovarian) | GI50 (U251 CNS) | GI50 (OVCAR-3 ovarian) | GI50 (MCF7 breast) | TGI (MCF7 breast) | GI50 (LOX IMVI melanoma) | GI50 (HOP-62 NSCLC) | GI50 (SF-268 CNS) | GI50 (SK-MEL-28 melanoma) |
| --- | --- | --- | --- | --- | --- | --- | --- | --- | --- | --- | --- | --- | --- | --- | --- | --- | --- | --- | --- | --- |
| CCOC(=O)C1Oc2ccc([N+](=O)[O-])c3c2C1(O)CCC3 (stereo not given) | > 100 µM | > 100 µM | > 100 µM | > 100 µM | > 100 µM | > 100 µM | > 100 µM | > 100 µM |  |  |  |  |  |  |  |  |  |  |  |  |
| O=S(=O)(c1ccccc1)C(CN1CCCCC1)S(=O)(=O)c1ccccc1 | > 100 µM | > 100 µM | > 100 µM | > 100 µM | > 100 µM | > 100 µM | > 100 µM | > 100 µM |  |  |  |  |  |  |  |  |  |  |  |  |
| c1ccc2c(c1)c(NCCCCN1CCCCC1)cc1c3ccccc3c(NCCCCN3CCCCC3)cc21 | 35.4 µM | > 100 µM |  | 29.8 µM | 87.2 µM | 28.2 µM | 26 µM | 32.1 µM | 17.2 µM | 17.2 µM | 35.7 µM | 36.9 µM | 7.67 µM | 19.5 µM | 4.76 µM | 23.2 µM | 11.2 µM | 10.9 µM | 14.1 µM |  |
| Nn1c(-c2ccccc2Cl)nc2ccccc2c1=O | > 100 µM | > 100 µM | > 100 µM | > 100 µM | > 100 µM |  | > 100 µM | > 100 µM |  |  |  |  |  |  |  |  |  |  |  |  |
| N#CC(C(=O)CCC(=O)Nc1cccc(Cl)c1)c1ccccc1 (stereo not given) | > 100 µM | > 100 µM | > 100 µM | > 100 µM | > 100 µM | > 100 µM | > 100 µM | > 100 µM |  |  |  |  |  |  |  |  |  |  |  |  |
| COc1ccc(C(OCC2OC(n3ccc(NC(=O)c4ccccc4)nc3=O)C(O)C2O)(c2ccccc2)c2ccccc2)cc1 (stereo not given) | 3.2 µM | 3.86 µM | 7.95 µM | 3.48 µM | 3.15 µM |  | 4 µM | 19.8 µM |  |  | 4.05 µM |  |  |  |  | 4.26 µM |  |  |  |  |
| O=C1c2ccccc2-c2c1c1ccc([N+](=O)[O-])cc1c(=O)n2CCCBr | > 100 µM | > 100 µM | > 100 µM | > 100 µM | > 100 µM | > 100 µM |  | > 100 µM | > 100 µM | > 100 µM | > 100 µM | > 100 µM | > 100 µM | > 100 µM | 0.153 µM | > 100 µM | 4.18 µM |  | > 100 µM | > 100 µM |
| C=C1COC(/C=C(\C)CC/C=C(\C)CCl)C1 (stereo not given) | > 100 µM | > 100 µM | > 100 µM | > 100 µM | > 100 µM | > 100 µM | > 100 µM | > 100 µM |  |  |  |  |  |  |  |  |  |  |  |  |
| COc1ccc(C2CC(c3cc(OC)c(OC)c(OC)c3)=NN2C(C)=O)cc1OCC(=O)Nc1nc2ccc(C(F)(F)F)cc2s1 (stereo not given) | > 100 µM | > 100 µM |  | 9.9 µM |  | > 100 µM | 5.58 µM | 29.5 µM | 3.31 µM | 3.11 µM | 8.96 µM | 5.3 µM | 3.08 µM |  | 4.02 µM | > 100 µM | 3.36 µM | 2.2 µM | 3.84 µM |  |
